Tested on: facial skin of humans
Assay: Retinoid irritation test: idebenone pre-treatment then prescription retinoid, clinician grading and TEWL
Format: in vivo
Procedure: In a test, idebenone was applied to the facial skin of humans. Two different test sites were setup whereby, one site was applied with idebenone twice a day for 2 weeks followed by a 2 week application period of a prescription retinoid (once a day, as prescribed). The remaining site was applied for 2 weeks just the prescription retinoid (once a day, as prescribed). Each test site was evaluated by a trained clinician for irritation and roughness using a 0 (none) to 4 (severe) scale pre and post retinoid treatment. Additionally, transepidermal water loss measurements (TEWL) were also made at the same time as visual evaluations.
FIG. 1 graphically depicts the results of the test.

[1] = facial skin, pre vs post 2 week retinoid treatment once a day, idebenone site pre-treated twice a day for 2 weeks

COC1=C(OC)C(=O)C(CCCCCCCCCCO)=C(C)C1=O [Idebenone, 6-(10-hydroxydecyl)-2,3-dimethoxy-5-methyl-1,4-benzoquinone]
increase in irritation (0 (none) to 4 (severe) scale, trained clinician) [1]: moderate to minimal increase
increase in roughness (0 (none) to 4 (severe) scale, trained clinician) [1]: moderate to minimal increase
increase in transepidermal water loss measurements (TEWL) [1]: moderate to minimal increase
irritation potential produced by the prescription retinoid (idebenone used as a pre-treatment for 2 weeks): significantly reduced
